Measured values as given in article PMC10008561 (Nature Communications, 2023).
Several values for one entry are separate records, joined by “and”; a condition that tells them apart may be missing. Equal values may be shown once. Read-outs that look alike come from different tables or passages of the source.

How the values were obtained:
MOR = target: T1, MOR (Homo sapiens, UniProt P35372); assay: BRET-Gi1 protein activation; assay type: cell-based
T1 construct: expressed in transfected cells; host or cells: HEK293

DOR = DOR (Homo sapiens, UniProt P41143); assay: Radioligand competition binding (3H-Diprenorphine)
human KOR (Gi2) [1] = target: T2, human KOR (Gi2) (Homo sapiens, UniProt P41145, N326A); assay: cell-based
T2 construct: expressed in transfected cells; host or cells: HEK293T

human KOR (Gi2) [2] = target: T3, human KOR (Gi2) (Homo sapiens, UniProt P41145, R271A); assay: cell-based
T3 construct: expressed in transfected cells; host or cells: HEK293T

human KOR (Gi2) [3] = target: T4, human KOR (Gi2) (Homo sapiens, UniProt P41145, D155A); assay: cell-based
T4 construct: expressed in transfected cells; host or cells: HEK293T

human KOR (Gi2) [4] = target: T5, human KOR (Gi2) (Homo sapiens, UniProt P41145, R257A); assay: cell-based
T5 construct: expressed in transfected cells; host or cells: HEK293T

human KOR (Gi2) [5] = target: T6, human KOR (Gi2) (Homo sapiens, UniProt P41145, F114L); assay: cell-based
T6 construct: expressed in transfected cells; host or cells: HEK293T

human KOR (Gi2) [6] = target: T7, human KOR (Gi2) (Homo sapiens, UniProt P41145, D334A); assay: cell-based
T7 construct: expressed in transfected cells; host or cells: HEK293T

human KOR (Gi2) [7] = target: T8, human KOR (Gi2) (Homo sapiens, UniProt P41145, F283A); assay: cell-based
T8 construct: expressed in transfected cells; host or cells: HEK293T

human KOR (Gi2) [8] = target: T9, human KOR (Gi2) (Homo sapiens, UniProt P41145, E297A); assay: cell-based
T9 construct: expressed in transfected cells; host or cells: HEK293T

human KOR (Gi2) [9] = target: T10, human KOR (Gi2) (Homo sapiens, UniProt P41145, Y139L); assay: cell-based
T10 construct: expressed in transfected cells; host or cells: HEK293T

human KOR (Gi2) [10] = target: T11, human KOR (Gi2) (Homo sapiens, UniProt P41145, K227A); assay: cell-based
T11 construct: expressed in transfected cells; host or cells: HEK293T

human KOR (Gi2) [11] = target: T12, human KOR (Gi2) (Homo sapiens, UniProt P41145, K200A); assay: cell-based
T12 construct: expressed in transfected cells; host or cells: HEK293T

human KOR (Gi2) [12] = target: T13, human KOR (Gi2) (Homo sapiens, UniProt P41145, D105A); assay: cell-based; details: HEK-293T
T13 construct: expressed in transfected cells; host or cells: HEK293T

human KOR (Gi2) [13] = target: T14, human KOR (Gi2) (Homo sapiens, UniProt P41145, Y320L); assay: cell-based
T14 construct: expressed in transfected cells; host or cells: HEK293T

human KOR (Gi2) [14] = target: T15, human KOR (Gi2) (Homo sapiens, UniProt P41145, T94V); assay: cell-based
T15 construct: expressed in transfected cells; host or cells: HEK293T

human KOR (Gi2) [15] = target: T16, human KOR (Gi2) (Homo sapiens, UniProt P41145, G319L); assay: cell-based
T16 construct: expressed in transfected cells; host or cells: HEK293T

human KOR (Gi2) [16] = target: T17, human KOR (Gi2) (Homo sapiens, UniProt P41145, N141A); assay: cell-based
T17 construct: expressed in transfected cells; host or cells: HEK293T

human KOR (Gi2) [17] = target: T18, human KOR (Gi2) (Homo sapiens, UniProt P41145, R170A); assay: cell-based; details: HEK-293T
T18 construct: expressed in transfected cells; host or cells: HEK293T

human KOR (Gi2) [18] = target: T19, human KOR (Gi2) (Homo sapiens, UniProt P41145); assay: cell-based
T19 construct: expressed in transfected cells; host or cells: HEK293T

human KOR (Gi2) [19] = target: T20, human KOR (Gi2) (Homo sapiens, UniProt P41145, L253A); assay: cell-based
T20 construct: expressed in transfected cells; host or cells: HEK293T

human KOR (Gi2) [20] = target: T21, human KOR (Gi2) (Homo sapiens, UniProt P41145, D266A); assay: cell-based
T21 construct: expressed in transfected cells; host or cells: HEK293T

human KOR (Gi2) [21] = target: T22, human KOR (Gi2) (Homo sapiens, UniProt P41145, N322A); assay: cell-based
T22 construct: expressed in transfected cells; host or cells: HEK293T

human KOR (Gi2) [22] = target: T23, human KOR (Gi2) (Homo sapiens, UniProt P41145, Q115N); assay: cell-based
T23 construct: expressed in transfected cells; host or cells: HEK293T

KOR Q115N = KOR Q115N (Homo sapiens, UniProt P41145, Q115N); assay: cell-based; set-up: TEV cleavage site (C); tTA transcription factor (C); expressed in transfected cells; host or cells: HTLA cells; details: read-out: Tango response (Figure S4C), KOR Q115N, Log [Drug], replicate values
human KOR [23] = target: T24, human KOR (Homo sapiens, UniProt P41145, G319L); assay: cell-based; details: HTLA
T24 construct: expressed in transfected cells; host or cells: HEK 293T (ATCC, CRL-3216)

human KOR [24] = target: T25, human KOR (Homo sapiens, UniProt P41145, F114L); assay: cell-based; details: HTLA
T25 construct: expressed in transfected cells; host or cells: HEK 293T (ATCC, CRL-3216)

human KOR [25] = target: T26, human KOR (Homo sapiens, UniProt P41145, W287A); assay: cell-based; details: HTLA
T26 construct: expressed in transfected cells; host or cells: HEK 293T (ATCC, CRL-3216)

human KOR [26] = target: T27, human KOR (Homo sapiens, UniProt P41145, Y320L); assay: cell-based; details: HTLA
T27 construct: expressed in transfected cells; host or cells: HEK 293T (ATCC, CRL-3216)

human KOR [27] = target: T28, human KOR (Homo sapiens, UniProt P41145, V134A); assay: cell-based; details: HTLA
T28 construct: expressed in transfected cells; host or cells: HEK 293T (ATCC, CRL-3216)
T28 sequence (P41145 whole entry V134A): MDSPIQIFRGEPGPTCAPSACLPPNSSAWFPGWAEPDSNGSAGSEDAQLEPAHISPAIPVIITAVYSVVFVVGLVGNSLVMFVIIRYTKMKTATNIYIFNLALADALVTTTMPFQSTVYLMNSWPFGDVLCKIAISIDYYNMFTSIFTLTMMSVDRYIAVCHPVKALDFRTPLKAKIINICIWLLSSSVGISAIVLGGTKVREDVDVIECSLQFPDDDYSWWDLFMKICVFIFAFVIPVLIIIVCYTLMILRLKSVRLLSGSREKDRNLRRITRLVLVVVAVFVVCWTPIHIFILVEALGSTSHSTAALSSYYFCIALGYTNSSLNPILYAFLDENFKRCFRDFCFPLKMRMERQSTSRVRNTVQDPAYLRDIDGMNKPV

T27 sequence (P41145 whole entry Y320L): as the sequence (P41145 whole entry V134A) above, with A134V, Y320L counted along it
T19 sequence (P41145 whole entry): as the sequence (P41145 whole entry V134A) above, with A134V counted along it
T25 sequence (P41145 whole entry F114L): as the sequence (P41145 whole entry V134A) above, with F114L, A134V counted along it
T20 sequence (P41145 whole entry L253A): as the sequence (P41145 whole entry V134A) above, with A134V, L253A counted along it
KOR Q115N, sequence (P41145 whole entry Q115N): as the sequence (P41145 whole entry V134A) above, with Q115N, A134V counted along it
KOR Q115N, sequence (P32121 whole entry partner): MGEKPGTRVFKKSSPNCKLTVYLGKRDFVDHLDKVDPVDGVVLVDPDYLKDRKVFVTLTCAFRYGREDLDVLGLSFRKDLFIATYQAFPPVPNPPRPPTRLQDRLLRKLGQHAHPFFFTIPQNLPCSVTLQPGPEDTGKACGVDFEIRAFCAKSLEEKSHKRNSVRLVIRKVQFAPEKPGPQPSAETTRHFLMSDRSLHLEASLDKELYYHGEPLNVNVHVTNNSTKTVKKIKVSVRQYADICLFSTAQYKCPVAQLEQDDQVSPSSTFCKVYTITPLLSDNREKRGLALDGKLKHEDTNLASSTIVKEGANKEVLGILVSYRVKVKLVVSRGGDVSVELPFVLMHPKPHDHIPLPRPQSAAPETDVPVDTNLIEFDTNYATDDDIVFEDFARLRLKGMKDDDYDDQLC
T4 sequence (P41145 whole entry D155A): as the sequence (P41145 whole entry V134A) above, with A134V, D155A counted along it
T15 sequence (P41145 whole entry T94V): as the sequence (P41145 whole entry V134A) above, with T94V, A134V counted along it
T14 sequence (P41145 whole entry Y320L): as the sequence (P41145 whole entry V134A) above, with A134V, Y320L counted along it
T11 sequence (P41145 whole entry K227A): as the sequence (P41145 whole entry V134A) above, with A134V, K227A counted along it
T9 sequence (P41145 whole entry E297A): as the sequence (P41145 whole entry V134A) above, with A134V, E297A counted along it
T12 sequence (P41145 whole entry K200A): as the sequence (P41145 whole entry V134A) above, with A134V, K200A counted along it
T3 sequence (P41145 whole entry R271A): as the sequence (P41145 whole entry V134A) above, with A134V, R271A counted along it
T2 sequence (P41145 whole entry N326A): as the sequence (P41145 whole entry V134A) above, with A134V, N326A counted along it
T21 sequence (P41145 whole entry D266A): as the sequence (P41145 whole entry V134A) above, with A134V, D266A counted along it
T17 sequence (P41145 whole entry N141A): as the sequence (P41145 whole entry V134A) above, with A134V, N141A counted along it
T6 sequence (P41145 whole entry F114L): as the sequence (P41145 whole entry V134A) above, with F114L, A134V counted along it
T22 sequence (P41145 whole entry N322A): as the sequence (P41145 whole entry V134A) above, with A134V, N322A counted along it
T23 sequence (P41145 whole entry Q115N): as the sequence (P41145 whole entry V134A) above, with Q115N, A134V counted along it
T8 sequence (P41145 whole entry F283A): as the sequence (P41145 whole entry V134A) above, with A134V, F283A counted along it
T7 sequence (P41145 whole entry D334A): as the sequence (P41145 whole entry V134A) above, with A134V, D334A counted along it
T5 sequence (P41145 whole entry R257A): as the sequence (P41145 whole entry V134A) above, with A134V, R257A counted along it
T16 sequence (P41145 whole entry G319L): as the sequence (P41145 whole entry V134A) above, with A134V, G319L counted along it
T24 sequence (P41145 whole entry G319L): as the sequence (P41145 whole entry V134A) above, with A134V, G319L counted along it
T13 sequence (P41145 whole entry D105A): as the sequence (P41145 whole entry V134A) above, with D105A, A134V counted along it
T1 sequence (P35372 whole entry): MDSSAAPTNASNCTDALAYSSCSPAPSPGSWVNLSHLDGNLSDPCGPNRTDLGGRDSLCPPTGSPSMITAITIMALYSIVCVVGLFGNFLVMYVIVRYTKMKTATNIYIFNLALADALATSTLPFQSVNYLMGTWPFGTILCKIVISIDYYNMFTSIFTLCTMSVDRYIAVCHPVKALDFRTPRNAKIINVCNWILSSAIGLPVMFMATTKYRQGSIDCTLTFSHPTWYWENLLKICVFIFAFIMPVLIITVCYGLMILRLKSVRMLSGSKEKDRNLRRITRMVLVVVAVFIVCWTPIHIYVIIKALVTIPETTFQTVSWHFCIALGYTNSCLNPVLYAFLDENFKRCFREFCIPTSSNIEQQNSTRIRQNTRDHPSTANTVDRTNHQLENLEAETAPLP
T26 sequence (P41145 whole entry W287A): as the sequence (P41145 whole entry V134A) above, with A134V, W287A counted along it
T10 sequence (P41145 whole entry Y139L): as the sequence (P41145 whole entry V134A) above, with A134V, Y139L counted along it
T18 sequence (P41145 whole entry R170A): as the sequence (P41145 whole entry V134A) above, with A134V, R170A counted along it
DOR, sequence (P41143 whole entry): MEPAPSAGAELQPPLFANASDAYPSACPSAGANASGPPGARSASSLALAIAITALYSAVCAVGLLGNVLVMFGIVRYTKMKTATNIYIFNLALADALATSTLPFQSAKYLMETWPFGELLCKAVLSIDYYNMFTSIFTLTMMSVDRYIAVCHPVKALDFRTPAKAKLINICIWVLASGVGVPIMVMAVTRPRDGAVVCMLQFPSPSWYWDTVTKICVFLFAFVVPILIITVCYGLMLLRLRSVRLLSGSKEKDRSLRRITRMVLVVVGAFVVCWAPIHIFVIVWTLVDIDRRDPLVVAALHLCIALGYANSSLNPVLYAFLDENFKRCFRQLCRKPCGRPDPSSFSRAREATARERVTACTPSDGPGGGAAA

`CN(C(=O)/C=C/c1ccoc1)[C@@H]1CC[C@@]2(O)[C@H]3Cc4ccc(O)c5c4[C@@]2(CCN3CC2CC2)[C@H]1O5` [Nalfurafine, nalfurafine] was tested, and the EC50 (MOR) was 5.13 nM, the Ki (DOR) was 0.427 nM and the “FC vs wild type” value (human KOR (Gi2) [1]) was 3. The Emax (human KOR (Gi2) [1]; HEK-293T) was 101%, the “FC vs wild type” value (human KOR (Gi2) [2]) was 112 and the Emax (human KOR (Gi2) [2]; HEK-293T) was 106%. The “FC vs wild type” value (human KOR (Gi2) [3]) was 20 and < 10, the Emax (human KOR (Gi2) [3]; HEK-293T) was 82% and the “FC vs wild type” value (human KOR (Gi2) [4]) was 100. For the same molecule, the Emax (human KOR (Gi2) [4]; HEK-293T) was 104%, the “FC vs wild type” value (human KOR (Gi2) [5]) was 18 and the Emax (human KOR (Gi2) [5]; HEK-293T) was 56.9%. For the same molecule, the “FC vs wild type” value (human KOR (Gi2) [6]) was 269, the Emax (human KOR (Gi2) [6]; HEK-293T) was 86.1% and the “FC vs wild type” value (human KOR (Gi2) [7]) was 7. For the same molecule, the Emax (human KOR (Gi2) [7]; HEK-293T) was 79%, the “FC vs wild type” value (human KOR (Gi2) [8]) was 2 and the Emax (human KOR (Gi2) [8]; HEK-293T) was 106%. For the same molecule, the “FC vs wild type” value (human KOR (Gi2) [9]) was 1, the “FC vs wild type” value (human KOR (Gi2) [10]) was 1 and the Emax (human KOR (Gi2) [10]; HEK-293T) was 101%. The “FC vs wild type” value (human KOR (Gi2) [11]) was 2, the Emax (human KOR (Gi2) [11]; HEK-293T) was 104% and the Emax (human KOR (Gi2) [12]) was 96.1%. The “FC vs wild type” value (human KOR (Gi2) [13]) was 186, the Emax (human KOR (Gi2) [13]; HEK-293T) was 89.3% and the “FC vs wild type” value (human KOR (Gi2) [14]) was 2. The Emax (human KOR (Gi2) [14]; HEK-293T) was 95.8%, the “FC vs wild type” value (human KOR (Gi2) [15]) was 17 and the Emax (human KOR (Gi2) [15]; HEK-293T) was 116%. The “FC vs wild type” value (human KOR (Gi2) [16]) was 7, the Emax (human KOR (Gi2) [16]; HEK-293T) was 103% and the Emax (human KOR (Gi2) [17]) was 57.6%. The Emax% (human KOR (Gi2) [18]) was 101%, the “FC vs wild type” value (human KOR (Gi2) [18]) was 1 and the Emax (human KOR (Gi2) [18]; HEK-293T) was 101%. For the same molecule, the “FC vs wild type” value (human KOR (Gi2) [19]) was 87 and 100, the Emax (human KOR (Gi2) [19]; HEK-293T) was 105% and the “FC vs wild type” value (human KOR (Gi2) [20]) was 110. The Emax (human KOR (Gi2) [20]; HEK-293T) was 107%, the “FC vs wild type” value (human KOR (Gi2) [21]) was 178 and the Emax (human KOR (Gi2) [21]; HEK-293T) was 77.2%. For the same molecule, the “FC vs wild type” value (human KOR (Gi2) [22]) was 24, the Emax (human KOR (Gi2) [22]; HEK-293T) was 60% and the activation at 10 µM (KOR Q115N; M -5) was 106%. It also gave an activation at […] (KOR Q115N; M -6.5) of 92.3%, an activation at 0.1 µM (KOR Q115N; M -7) of 92.6% and an activation at […] (KOR Q115N; M -7.5) of 76.8%. It also gave an activation at 0.01 µM (KOR Q115N; M -8) of 80.2%, an activation at […] (KOR Q115N; M -8.5) of 39% and an Emax (human KOR [23]) of 2.6 ± 1.2%. It also gave an activation at 1 µM (human KOR [23]; read-out: Tango response) of 4.03%, an Emax (human KOR [24]) of 17 ± 3% and an activation at 1 µM (human KOR [24]; read-out: Tango response) of 16.2%. The activation at 10 µM (human KOR [24]; read-out: Tango response) was 15.9%, the activation at […] (human KOR [24]; read-out: Tango response) was 30.3% and the Emax (human KOR [25]) was 85 ± 7%. The Emax (human KOR [26]) was 66 ± 7%, the activation at 0.1 µM (human KOR [26]; read-out: Tango response) was 43.6% and the activation at 1 µM (human KOR [26]; read-out: Tango response) was 51.8%. For the same molecule, the activation at 10 µM (human KOR [26]; read-out: Tango response) was 79.2%, the activation at […] (human KOR [26]; read-out: Tango response) was 53% and 72.8% and the Emax (human KOR [27]) was 76 ± 6%. For the same molecule, the activation at 10 µM (human KOR [27]; read-out: Tango response) was 71.1% and the activation at […] (human KOR [27]; read-out: Tango response) was 50.8% and 73.3%.
